A short description of series [1]: Single-dose crossover pharmacokinetic study of omeprazole (40 mg) alone or with clopidogrel (150 mg) in healthy volunteers (CYP2C19 EM and PM), plasma LC-MS. The format is in vivo, human. The conditions noted are these: for AUC0-∞, % increase / Cmax, % increase / E Half-life, % increase / Tmax, % increase / Cl, % increase: OMP+CLOP vs OMP alone; for half-life: read-out: E Half-life (converted). The procedure: A group of twelve healthy volunteers were recruited for this study (divided into two groups), and written informed consent was obtained from all participants included in the study. […] Electrocardiogram, routine lab tests including hematological, kidney and liver function tests were performed for all the volunteers. They were physically examined and their medical history was also evaluated. All volunteers were non-smokers and abstained from taking any other medicine and juices in the week prior to the study. Volunteers were served standard breakfast and lunch during the study. […] This study was conducted in accordance to “World Medical Association (WMA) declaration of Helsinki-Ethical principles for medical research involving human subjects” and its amendments. The study was approved by the ethical committee, Department of Pharmacy, University of […], Pakistan. (Application number13/EC/Pharm. Ref number 12/Pharm). It was a single dose, 2-period, 2-sequence study with 14 days washout period. […] Approximately 3 mL of blood was collected from each volunteer at 0, 0.5, 1, 2, 3, 4, 6, and 8 hr after dose administration in heparinized tubes. After centrifugation, the plasma was transferred into properly labeled eppendroff tubes and stored at a temperature of -20 °C until analysis. OMP and its metabolites were extracted from the plasma using precipitation method and were analyzed using LCMS method. The mobile phase consisted of 0.1 % formic acid in acetonitrile: 0.1 % formic acid in water (40/60 v/v) using Hichrom RP18 (150 × 3.0 mm, 3 μm UK) as a stationary phase interfaced with a LTQ Orbit rap mass spectrometer. Pantoprazole was used as an internal standard (Ahmad et al., 2015[1]). Various PK parameters were calculated using the PK Solutions software. […] The AUC0-∞ was determined by trapezoidal rule. The elimination half life was determined by using first-order equation, i.e., The apparent oral clearance (CL/F) was determined by using equation, Dose/AUC0-∞. The pharmacokinetic data was interpreted statistically using SPSS software (version 16.0; SPSS, Inc, Chicago, IL). […] P < 0.05 was considered statistically significant.

The conditions of series [2]: ref McEwen et al., 1999; cited from earlier work.
The mark [3] stands for this setting: human, plasma, oral, 40 mg, extensive metabolizers, OMP 40 mg alone.
Where [4] appears, read: human, plasma, oral, 40 mg, extensive metabolizers, OMP 40 mg alone, read-out: Tmax.
[5] abbreviates: human, plasma, oral, 40 mg, poor metabolizers, OMP 40 mg alone.
Setting [6] is: human, plasma, oral, 40 mg, poor metabolizers, OMP 40 mg alone, read-out: Tmax.
[7] abbreviates: human, plasma, oral, extensive metabolizers (n = 8), OMP 40 mg + CLOP 150 mg, single dose, plasma, read-out: Cmax.
The mark [8] stands for this setting: human, plasma, oral, extensive metabolizers, OMP 40 mg + CLOP 150 mg.
[9] abbreviates: human, plasma, oral, extensive metabolizers, OMP 40 mg + CLOP 150 mg, read-out: Tmax.
Where [10] appears, read: human, plasma, oral, poor metabolizers (n = 4), OMP 40 mg + CLOP 150 mg, single dose, plasma, read-out: Cmax.
Setting [11] is: human, plasma, oral, poor metabolizers, OMP 40 mg + CLOP 150 mg.
Setting [12] is: human, plasma, oral, poor metabolizers, OMP 40 mg + CLOP 150 mg, read-out: Tmax.
Where [13] appears, read: human, plasma, po, 40 mg, extensive metabolizers (n = 8), OMP 40 mg alone, single oral dose, plasma, read-out: Cmax.
Setting [14] is: human, plasma, po, 40 mg, poor metabolizers (n = 4), OMP 40 mg alone, single oral dose, plasma, read-out: Cmax.
The mark [15] stands for this setting: extensive metabolizers, OMP 40 mg + CLOP 150 mg.
The mark [16] stands for this setting: extensive metabolizers, OMP 40 mg alone.
Setting [17] is: poor metabolizers, OMP 40 mg + CLOP 150 mg.
Setting [18] is: poor metabolizers, OMP 40 mg alone.

Like-named read-outs stand apart in the source and are kept apart here.

A word on the AUC(0-inf): it is the area under the concentration-time curve extrapolated to infinity. As a reminder, the half-life is the time in which the quantity being followed falls by half. One may read the Tmax as the time from dosing to the highest level. What is called Cmax is the peak of the concentration-time curve. In the case of `COc1ccc2nc(S(=O)(=O)Cc3ncc(C)c(OC)c3C)[nH]c2c1` [OMP-S, omeprazole sulfone], the “AUC0-∞, % increase” value in series [1] (extensive metabolizers) is listed as 5.01% ± 1.57; in series [1] (poor metabolizers), 2.32% ± 2.9. In addition, the “Cmax, % increase” value in series [1] (extensive metabolizers) is given as 8.01% ± 2.0. For the same compound, the “E Half-life, % increase” value in series [1] (extensive metabolizers) is listed as 3.81% ± 1.70; in series [1] (poor metabolizers), -6.08% ± 0.96. The entries for the “Tmax, % increase” value in series [1] (extensive metabolizers) and in series [1] (poor metabolizers) were -2.5% ± 1.18 and -3.28% ± 0.60, respectively. Moreover, the area under the curve AUC(0-inf) in series [1] (setting [3]) amounted to 535 ± 58 ng·h/mL; in series [1] (setting [5]), 1500 ± 118 ng·h/mL; in series [1] (setting [8]), 612 ± 70 ng·h/mL; in series [1] (setting [11]) it was 1520 ± 102 ng·h/mL. Further, the half-life in series [1] (setting [3]) was 2.37 ± 0.472 h; in series [1] (setting [5]), 3.34 ± 0.438 h; in series [1] (setting [8]), 2.48 ± 0.496 h; in series [1] (setting [11]) it was 3.14 ± 0.44 h. Besides, the Tmax came to 2.72 ± 0.278 h in series [1] (setting [4]), 3.06 ± 0.17 h in series [1] (setting [6]), 2.65 ± 0.255 h in series [1] (setting [9]) and 3 ± 0.077 h in series [1] (setting [12]). Also, the Cmax was determined as 198 ± 26 ng/mL in series [1] (setting [7]), 431 ± 56 ng/mL in series [1] (setting [10]), 175 ± 24 ng/mL in series [1] (setting [13]) and 444 ± 53 ng/mL in series [1] (setting [14]).

Regarding `COC(=O)[C@H](c1ccccc1Cl)N1CCc2sccc2C1` [CLOP, clopidogrel], the oral bioavailability result in series [2] was “less than 50%”.

In the case of `COc1ccc2nc([S+]([O-])Cc3ncc(CO)c(OC)c3C)[nH]c2c1` (centres unmarked) [5-OH-OMP, 5-hydroxyomeprazole], the highest concentration (Cmax) in series [1] (extensive metabolizers (n = 8), OMP 40 mg + CLOP 150 mg, single dose, plasma) amounted to 401 ± 35 ng/mL; in series [1] (extensive metabolizers (n = 8), OMP 40 mg alone, single oral dose, plasma), 562 ± 53 ng/mL; in series [1] (poor metabolizers (n = 4), OMP 40 mg + CLOP 150 mg, single dose, plasma), 373 ± 32 ng/mL; in series [1] (poor metabolizers (n = 4), OMP 40 mg alone, single oral dose, plasma) it was 407 ± 46 ng/mL. Also, the “AUC0-∞” value worked out at 1615 ± 401 ng·h/mL in series [1] (setting [15]), 2203 ± 619 ng·h/mL in series [1] (setting [16]), 1566 ± 90 ng·h/mL in series [1] (setting [17]) and 1607 ± 126 ng·h/mL in series [1] (setting [18]). Also, the “E Half-life” value in series [1] (setting [15]) turned out to be 1.097 ± 0.106 h; in series [1] (setting [16]), 1.24 ± 0.129 h; in series [1] (setting [17]) it was 2.828 ± 0.188 h; in series [1] (setting [18]) it was 2.588 ± 0.111 h. The Tmax in series [1] (setting [15]) was 2.49 ± 0.281 h; in series [1] (setting [16]), 2.723 ± 0.394 h; in series [1] (setting [17]) it was 3.138 ± 0.251 h; in series [1] (setting [18]), 2.988 ± 0.311 h. For the same compound, the “AUC0-∞, % increase” value in series [1] (extensive metabolizers) is reported as -14.22% ± 2.80; in series [1] (poor metabolizers) it was -1.73% ± 2.38. For the same compound, the “Cmax, % increase” value was -16.23% ± 5.8 in series [1] (extensive metabolizers) and -4.9% ± 3.61 in series [1] (poor metabolizers). Also, the “E Half-life, % increase” value in series [1] (extensive metabolizers) is -8.30% ± 6.1. The results for the “Tmax, % increase” value in series [1] (extensive metabolizers) and in series [1] (poor metabolizers) were -8.23 ± 4.3% and 5.20% ± 4.0, respectively.

Take `COc1ccc2[nH]c([S+]([O-])Cc3ncc(C)c(OC)c3C)nc2c1` (centres unmarked) [OMP, omeprazole]: the “drug metabolite ratio [AUC]OMP/5-OH-OMP” value in series [1] (EM) was determined as 1.94 ±0.602; in series [1] (PM) it was 9.84 ± 4.543. In addition, the figures for the “drug metabolite ratio [AUC]OMP/OMP-S” value in series [1] (EM) and in series [1] (PM) were 13.64 ± 2.711 and 9.85 ± 4.98, respectively. Also, the “Cl (apparent oral clearance, Dose/AUC0-∞)” value in series [1] (setting [15]) was found to be 1.94445 ± 0.356 mL/min/kg; in series [1] (setting [16]) it was 2.29722 ± 0.38992 mL/min/kg; in series [1] (setting [17]), 0.88245 ± 0.125 mL/min/kg; in series [1] (setting [18]) it was 0.97735 ± 0.144 mL/min/kg. Also, the “AUC0-∞, % increase” value was 9.33% ± 5.13 in series [1] (extensive metabolizers) and 4.11% ± 1.68 in series [1] (poor metabolizers). Besides, the “Cl, % increase” value is -15.42% ± 4.92 in series [1] (extensive metabolizers) and -9.6% ± 1.72 in series [1] (poor metabolizers). In addition, the “E Half-life, % increase” value in series [1] (extensive metabolizers) is 6.31% ± 4.31; in series [1] (poor metabolizers), -4.73% ± 3.06. Also, the “Tmax, % increase” value in series [1] (extensive metabolizers) was 0.043% ± 0.0204; in series [1] (poor metabolizers), -0.78% ± 0.32. Besides, the AUC(0-inf) in series [1] (setting [3]) stood at 4040 ± 282 ng·h/mL; in series [1] (setting [5]), 8820 ± 778 ng·h/mL; in series [1] (setting [8]), 4900 ± 620 ng·h/mL; in series [1] (setting [11]), 9070 ± 861 ng·h/mL. The half-life in series [1] (setting [3]) was 1.05 ± 0.187 h; in series [1] (setting [5]), 1.58 ± 0.058 h; in series [1] (setting [8]) it was 1.13 ± 0.185 h; in series [1] (setting [11]) it was 1.51 ± 0.049 h. In addition, the time of peak concentration (Tmax) in series [1] (setting [4]) amounted to 2.8 ± 0.178 h; in series [1] (setting [6]) it was 2.99 ± 0.411 h; in series [1] (setting [9]) it was 2.9 ± 0.228 h; in series [1] (setting [12]), 2.98 ± 0.414 h. Also, the Cmax in series [1] (setting [7]) is 1090 ± 146 ng/mL; in series [1] (setting [10]), 1630 ± 116 ng/mL; in series [1] (setting [13]), 890 ± 83 ng/mL; in series [1] (setting [14]) it was 1410 ± 146 ng/mL. In addition, in series [1] (poor metabolizers), the “Cmax, % increase” value is 5.46% ± 2.08.

Values taken from article PMC5427475, “Effect of clopidogrel on the hydroxylation and sulfoxidation of omeprazole: A single dose study in healthy human volunteers” (EXCLI Journal, 2017).
